Results from ChEMBL document CHEMBL1133112, “Structure-function relationships in aminoquinolines: effect of amino and chloro groups on quinoline-hematin complex formation, inhibition of beta-hematin formation, and antiplasmodial activity” (J Med Chem, 2000).
Activity calls are given as the source filed them. The rule behind the calls is not given here.

How the values were obtained:
Plasmodium falciparum = test: In vitro antiplasmodial activity against Plasmodium falciparum D10; assay type: functional, organism-based
Ferriprotoporphyrin IX [1] = system: Ferriprotoporphyrin IX
Description: Association constant with ferriprotoporphyrin IX.

[2] = biological target: T1, Histidine-rich protein PFHRP-II (Plasmodium falciparum) (UniProt P05227)
T1 sequence (whole entry): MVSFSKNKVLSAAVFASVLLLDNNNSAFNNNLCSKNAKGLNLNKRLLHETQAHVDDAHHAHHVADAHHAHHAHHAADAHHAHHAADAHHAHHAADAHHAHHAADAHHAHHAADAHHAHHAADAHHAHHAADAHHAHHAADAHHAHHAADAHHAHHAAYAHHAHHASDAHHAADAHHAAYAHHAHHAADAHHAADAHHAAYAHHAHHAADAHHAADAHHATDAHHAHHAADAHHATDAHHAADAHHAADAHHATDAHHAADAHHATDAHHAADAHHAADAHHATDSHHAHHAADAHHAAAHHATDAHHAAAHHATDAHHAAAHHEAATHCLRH

Ferriprotoporphyrin IX [3] = test: LogK (Association constant) with ferriprotoporphyrin IX.

SMILES	IC50 (Plasmodium falciparum) [µM]	Log K (Ferriprotoporphyrin IX [1])	NI [2]	Log K2 (Ferriprotoporphyrin IX [3])
CC(=O)NCCNc1ccnc2ccccc12	> 10	4.28	No inhibition	
c1ccc2ncccc2c1 [QUINOLINE]	> 10	< 2.5	inactive	
CNc1ccc2ccccc2n1	> 10	4.26	inactive	
CNc1ccnc2ccccc12	> 10	4.38	No inhibition	
Nc1cnc2ccccc2c1	> 10	< 2.5	inactive	
NCCNc1ccc2ccccc2n1	> 10	4.34	No inhibition	
Nc1cccc2cccnc12 [8-AMINOQUINOLINE]	> 10	< 2.5	No inhibition	
Nc1ccc2ncccc2c1	> 10	< 2.5	No inhibition	
OCCNc1ccnc2ccccc12	> 10	4.18	No inhibition	
CCN(CC)CCNc1ccnc2cc(Cl)ccc12	0.049	5.81		4.47
Nc1cccc2ncccc12	> 10	< 2.5	No inhibition	
Nc1ccnc2ccccc12 [QUINOLIN-4-AMINE]	> 10	4.49	No inhibition	

Second part, led by results:

IC50 (Plasmodium falciparum) [µM]	Log K (Ferriprotoporphyrin IX [1])	NI [2]	SMILES	Log K2 (Ferriprotoporphyrin IX [3])
> 10	< 2.5	No inhibition	Clc1ccc2c(Cl)ccnc2c1	
5.07	4.66		OCCNc1ccnc2cc(Cl)ccc12	
4.7	4.59	No inhibition	NCCNc1ccnc2ccccc12	
0.092	4.93		NCCNc1ccnc2cc(Cl)ccc12	
3.8	4.43		Nc1ccnc2cc(Cl)ccc12	
0.799	4.75	No inhibition	CCN(CC)CCNc1ccnc2ccccc12	3.2
4	4.48		CNc1ccnc2cc(Cl)ccc12	
0.0809	4.96		CN(C)CCNc1ccnc2cc(Cl)ccc12	
